Source: patent publication US20130197073A1, “HYPOCHOLESTEROLEMIC, ANTI-INFLAMMATORY AND ANTIEPILEPTIC NEUROPROTECTIVE COMPOUND” (NEURON BIOPHARMA, S.A., priority 2010, published 2013)
Where two headings read alike, the source gives them in different places.

What was measured:
seladin-1/DHCR24 gene = assay: Induction of seladin-1/DHCR24 gene expression, quantitative RT-PCR; format: cell-based, human; conditions: 4 μM, 24 hours, GAPDH-normalized; increase at all tested concentrations (1, 4, 10, 40 μM)
Description: The assay was performed on human neuroblastoma SK-N-MC cells in culture from the American Type Culture Collection (ATCC), in all cases strict rules of sterility were followed and the manipulation was performed in class II biological safety cabinets following European standard EN 12469. The cells were maintained in the following culture medium: Minimum Essential Medium Eagle (MEM) supplemented with 1 mM sodium pyruvate, 2 mM L-glutamine, 0.1 mM non-essential amino acids, 0.05 mg/ml gentamicin and 10% fetal bovine serum.
Real-time quantitative RT-PCR was used to analyze the expression of the seladin-1/DHCR24 gene. The SK-N-MC cells were treated for 24 hours in the absence (control) or presence of NST0060 at 1, 4, 10 or 40 μM. The total RNA was extracted by means of the High Pure RNA Isolation kit (Roche) and the RNA amount and quality were analyzed by means of spectrophotometry in the Infinite 200 NanoQuant system (Tecan). The RT-PCR was performed by means of two steps, first, the mRNA was transformed to cDNA using the RNA to cDNA kit (Applied Biosystem) and the gene expression was subsequently analyzed by means of TaqMan probes using the validated probes Hs00207388_m1 for seladin-1/DHCR24 and Hs99999905_m1 for GAPDH (used to normalize the results), both of which are human-specific, in the 7500 Fast Real-Time PCR System equipment (Applied Biosystem). […]

[1] = tested on: human hepatocarcinoma line HepG2; assay: Intracellular total cholesterol levels in human hepatic cell line; format: cell-based; conditions: HepG2, active form, 20 hours in the absence of FBS
Description: To that end an assay was conducted which had the purpose of determining if compound NST0060 in its active form was capable of modifying total cholesterol levels in the human hepatocarcinoma line HepG2. […] To carry out this assay, the compounds were prepared at 10 mM in ultrapure water and were activated by means of 0.1 N NaOH for 12 hours at 4° C. The compounds were stored at −20° C. until they were used.
The HepG2 line was obtained from the American Type Culture Collection (ATCC). The cells maintained in passage were seeded in 96-well plates (4×10^4 cells/well) in MEM supplemented with 10% FBS, 2 mM L-glutamine, 1 mM sodium pyruvate, 0.1 mM non-essential amino acids and 0.05 mg/mL gentamicin. After 24 hours of the seeding, the cells were deprived of FBS for 8 hours. The cells were then incubated with the treatments at various concentrations for 20 hours. After the incubation period, the cells were washed with PBS and lysed with a phosphate buffer with 0.5% Triton X-100. The lysis was completed by means of a double freezing-thawing.
The total cholesterol was quantified by means of enzymatic and fluorometric techniques. […] The fluorescence intensity was determined at 530 nm of excitation and 580 nm of emission by means of a fluorometer. The results were standardized by amount of protein, which was determined by means of the BCA technique.

male C57BL6 mice = assay: LPS model of systemic shock in mice, survival and symptomatology score; format: in vivo; conditions: LPS 8 mg/kg i.p.
Description: To that end an additional assay was carried out in which all the animals included were 12-week old male C57BL6 mice. The experiments were carried out strictly complying with the standard entitled Guidance on the Operation of Animals (Scientific Procedures, Act. 1986). The animals were subjected to their respective quarantine period and were treated with maximum precaution to minimize possible contaminations during treatments and handling.
The mice were split up into three experimental groups: control group (n=8); control+LPS group (n=16); NST0060+LPS group (n=16). The mice were i.p. administered two doses of 50 mg/kg of NST0060 (in its lactone form) spaced out 12 hours from one another. 0.5% methyl cellulose in physiological saline, which was administered to the mice in the control groups with the same administration regimen, was used as a vehicle. Peripheral systemic inflammation was induced one hour after the last treatment by means of a single i.p. injection of LPS at 8 mg/kg. Half the mice in which systemic shock was induced (8 animals from the control+LPS group and 8 animals from the NST0060+LPS group) were sacrificed 2 hours after the inoculation of the LPS. Blood was taken and plasma was obtained, and both were frozen. […] The concentration of the inflammatory cytokines TNFα and IL-1β was evaluated in the plasma obtained by means of ELISA.

[2] = tested on: zebrafish (Danio rerio, AB strain) embryos; conditions: in vivo
Description: The study of this parameter (cardiotoxicity) not only determines the heart rate of the animals but also it allows determining heart beat alterations (tachycardia, bradycardia, etc.) or heart development anomalies (pericarditis, atrophy, hypertrophy, etc.).
The determination of the heart rate of the zebrafish embryos or larvae is performed visually. The heart beat (with the help of a manual counter) is counted for a period of 15 seconds by means of a magnifying glass (magnifications of 4-40×). The heartbeat of 12 of the 30 animals used per treatment in total is counted. The number of beats obtained is multiplied by 4 to obtain the number of heart beats per minute of the animal.

For `CCCC(CCC)C(=O)O[C@H]1C[C@@H](C)C=C2C=C[C@H](C)[C@H](CC[C@@H]3C[C@@H](O)CC(=O)O3)[C@H]21` [NST0060, 2-propylpentanoic acid (1S,3R,7S,8S,8aR)-1,2,3,7,8,8a-hexahydro-3,7-dimethyl-8-[2-[(2R,4R)-tetrahydro-4-hydroxy-6-oxo-2H-pyran-2-yl]ethyl]-1-naphthalenyl ester], the “increase of seladin-1/DHCR24 gene expression with respect to the control” value (seladin-1/DHCR24 gene) was 2.5 fold, the “reduction in total cholesterol in the cells” value [1] was “reductions in total cholesterol in the cells similar to those exerted by simvastatin” and the “survival rate / mortality induced by LPS” value (male C57BL6 mice; two i.p. doses of 50 mg/kg (lactone form), observed 15 days) was “mortality induced by LPS is prevented in a statistically significant manner”. For the same compound, the “score associated with the symptomatology (0 to 3)” value (male C57BL6 mice; two i.p. doses of 50 mg/kg, statistically significant at 24 hours) was “lower severity of the systemic shock process”, the “heart rate with respect to the controls” value ([2]; AB, zebrafish (Danio rerio), 3 mg/kg, 72 h) was “not at the dose of 3 mg/Kg” and the “heart rate with respect to the controls” value ([2]; 10 mg/kg) was “decrease of the heart rate is detected”.
